# Source: patent US6159953A, “Anti-malarial composition and method of use” (Catholic University of America, priority 1992, dated 2000)
# Read-outs that look alike come from different tables or passages of the source.
# Legend:
# [1] = tested on: thymidylate synthesis; conditions: Heidelberger 1983; cited from earlier work
# [2] = tested on: HT-1080 human fibrosarcoma cells; test: Toxicity to cultured HT-1080 cells, number of viable cells; type: cell-based; conditions: Homo sapiens, HT-1080, 48 h
# Protocol: Each data point represents an average of two determinations. […] Each data point represents an average of two determinations.
# (§1) Half shaded symbols represent overlapping data points.
# Toxicity of pyrimidine analogues to cultured human cells is determined as follows. Mammalian cells are seeded into culture plate wells, and growth medium is added. The following day, fresh culture medium containing the appropriate pyrimidine analogues is added to the wells, and the plates incubated for a period of time and at a temperature appropriate to the cell line and the experimental requirements. Thereafter, the number of cells in each well is determined. […] Cells that grow in suspension (e.g., HL-60 and L-1210 cells) are transferred to centrifuge tubes, pelleted at low speed, washed, and the viability determined as above.
# HT-1080 cells were seeded into 6-well culture plates at a density of 50,000 cells per 9.6 cm^2 well. Each well contained 2.5 ml of growth medium. […] After 1 minute, the detached cells were suspended in 1.0 ml of EMEM and collected by centrifugation at 300×g for 3 minutes. […] The concentrations of viable cells were determined in a hemocytometer.
# [3] = tested on: Plasmodium falciparum, Indochina clone W2; test: microbe, parasite or virus in culture; conditions: for IC50: Plasmodium falciparum; for Molar Index: Indochina clone, equimolar activity of 5-fluoroorotate relative to the conventional drug
# Protocol: In the antimalarial experiment with parasites, incorporation of radioactivity from [G-^3 H]-hypoxanthine into nucleic acids served as a measure of parasite proliferation. […] Each data point represents an average of two determinations. In the study of toxicity to human cells, proliferation of cells was determined directly by measuring the number of viable cells per well. […] Each data point represents an average of two determinations. 5-fluoro-orotate (.circle-solid.), 5-fluorouracil (.box-solid.), 5-fluorouridine (.tangle-solidup.), and 5-fluoro-2'-deoxyuridine (.diamond-solid.).
# as §1
# (§2) 3. Effects of pyrimidine analogues alone or in combination with normal pyrimidine bases or nucleosides or with amino acid derivatives can be tested in malaria parasite-infected erythrocytes. Varying concentrations of pyrimidine analogues in culture medium are added to individual wells of microtitre plates [Desjardins, R. E. et al., Antimicrob. […] Parasitemic erythrocytes in culture medium are added to each well. […] As an alternative to adding a radioactive precursor of nucleic acid biosynthesis, the end point for determining the effects of added drugs can be the incorporation of a radioactive amino acid, e.g., [U-^14 C]-isoleucine, into parasite protein.
# Fluoropyrimidines, dispersed in 25 μl of culture medium, were added to individual wells of a 96-well microtitre plate. […] Finally, the incorporation of 0.5 μCi of [G-^3 H]hypoxanthine (1 Ci/mmol) into nucleic acids in each well was determined; this served as a measure of parasite proliferation.
# [4] = tested on: Plasmodium falciparum, Sierra Leone clone D6; test: Inhibition of P. falciparum proliferation, [G-3H]-hypoxanthine incorporation, Sierra Leone clone D6 (chloroquine-sensitive); type: cell-based; conditions: Sierra Leone clone; for IC50: Plasmodium falciparum, D6, Table 1, mean ± S.D. of five independent drug response curves; for Molar Index: equimolar activity of 5-fluoroorotate relative to the conventional drug
# Protocol: as §2
# Fluoropyrimidines, dispersed in 25 μl of culture medium, were added to individual wells of a 96-well microtitre plate. […] Finally, the incorporation of 0.5 μCi of [G-^3 H]hypoxanthine (1 Ci/mmol) into nucleic acids in each well was determined; this served as a measure of parasite proliferation. […] In a second method, the increase in parasitemia was determined directly by smearing infected erythrocytes on microscope slides, staining with Giemsa stain, and determining the ratio of infected to non-infected erythrocytes. In a third method, parasite-infected erythrocytes were incubated with [U-^14 C]-isoleucine (0.5 μCi; 0.33 Ci/mmol), and the amount of radioactivity incorporated into precipitable proteins determined.
# [5] = cited from earlier work
# [6] = tested on: P. yoelii; test: Anti-malarial activity in P. yoelii-infected mice; type: in vivo, P. yoelii in Swiss white mice; conditions: experiment 2 control, 800 mg/kg uridine alone
# Protocol: FIG. 4 illustrates the effect of 5-fluoro-orotate treatment on blood parasitemia. Mice infected with P. yoelii on day 0 in experiments 1 and 2 were treated with (A) 0.2 mg/kg 5-fluoro-orotate, (B) 1 mg/kg, or (C) 5 mg/kg every 4 hours for three days. Control mice (.largecircle., .circle-solid., respectively), received no drug. Open symbols represent treatment without uridine (experiment 1: .smallcircle., .quadrature., .diamond., Δ), and filled symbols represent animals also treated with uridine (experiment 2: .circle-solid., .box-solid., .diamond-solid., .tangle-solidup.). Animals were treated with 5-fluoro-orotate on days 3 to 6. Animals were also treated with uridine in experiment 2 on days 3 to 9.
# FIG. 5 illustrates the survival rate of mice infected with P. yoelii and treated with 5-fluoro-orotate, alone or in combination with uridine. Mice were treated with (A) 0.2 mg/kg 5-fluoro-orotate, (B) 1 mg/kg, or (C) 5 mg/kg. Control mice received no 5-fluoro-orotate (.largecircle., .circle-solid., respectively). Open symbols represent treatment without uridine (experiment 1: .largecircle., .quadrature., .diamond., Δ), and closed symbols represent animals also receiving uridine (experiment 2: .circle-solid., .box-solid., .diamond-solid., .tangle-solidup.).
# A second in vivo test system can be used to determine if repeated administration of the pyrimidine analogue would have safe anti-malarial activity. In this test system, groups of animals are infected with malaria parasites. At a time when blood parasitemia is reached, the animals are injected with saline alone (control) or with various concentrations of one or more pyrimidine analogues alone or together with one or more rescuing pyrimidine bases or nucleosides at a single concentration, at intervals, over a period of several days. In order to determine the prophylactic effectiveness of the rescuing pyrimidine base or nucleoside, the animals are pretreated with such a base or nucleoside prior to the administration of the pyrimidine analogue. Anti-malarial activity of the treatments is estimated by determining blood parasitemia on the animals at appropriate times. The safety of the treatments is estimated by monitoring animals for weight loss and diarrhea, as these are early symptoms of pyrimidine analogue toxicity [Houghton, J. A., et al., Cancer Res., 39:2406-13 (1979)].
# Swiss white mice (25-30 g) were divided into groups of five. On day 0, each mouse was infected by intraperitoneal injection of 10^5 erythrocytic forms of P. yoelii. Starting on day 3, when the blood parasitemia had reached between 5 and 12%, the mice were injected intraperitoneally every 4 hours for three consecutive days with 200 μl of various formulations. […]
# [7] = text value (FIG. 1B), read-out: IC50
"IC50 ([3]; W2, 48 h)",IC50 ([3]; W2),Compound,Molar Index [4],Molar Index [3],other results
32000 nM,–,"O=c1[nH]c(=O)n([C@@H]2O[C@H](CO)[C@@H](O)[C@H]2O)cc1F [5-fluoro-uridine, reference compound]",–,–,"IC50 [2, 7]: 30 nM"
–,111 ± 29 nM,CCc1nc(N)nc(N)c1-c1ccc(Cl)cc1 [Pyrimethamine],0.04,19,IC50 ([4]; read-out: IC50): 0.24 ± 0.16 nM
–,25600 ± 7080 nM,COc1ncnc(NS(=O)(=O)c2ccc(N)cc2)c1OC [Sulfadoxine],13.5,4344,IC50 ([4]; read-out: IC50): 76.2 ± 13.2 nM

# The next lines start with the compound.
Compound,"IC50 ([3]; W2, 48 h)",IC50 ([3]; W2),Molar Index [4],Molar Index [3],other results
O=c1[nH]c(=O)n([C@H]2C[C@H](O)[C@@H](COP(=O)(O)O)O2)cc1F [5-fluoro-2'-deoxy-uridylate],–,–,–,–,inhibition of thymidylate synthesis [1]: potent enzyme-activated inhibitor of thymidylate synthesis
"O=c1[nH]c(=O)n([C@H]2C[C@H](O)[C@@H](CO)O2)cc1F [5-fluoro-2'-deoxyuridine, reference compound]",100000 nM,–,–,–,"IC50 [2, 7]: 10 nM"
"O=c1[nH]cc(F)c(=O)[nH]1 [5-fluoro-uracil, reference compound]",12000 nM,–,–,–,IC50 ([2]; read-out: IC50 (50% inhibition)): 2000 nM
CCN(CC)CCCC(C)Nc1ccnc2cc(Cl)ccc12 (stereo not shown) [Chloroquine],–,127 ± 23 nM,1.6,21,"IC50 [4]: 9 ± 1.7 nM; tolerability, oral ([5]; oral): typically is well-tolerated; safety, parenteral ([5]; parenteral, children): may cause cardiac arrhythmia and sudden death in children"
"O=c1ccn([C@@H]2O[C@H](CO)[C@@H](O)[C@H]2O)c(=O)[nH]1 [uridine, reference compound]",–,–,–,–,"mortality, uridine alone [6]: all succumbed to P. yoelii"
